# Reference: US20260108588A1, “A COMPLEX COMPRISING A ALPHA-LACTALBUMIN AND A FATTY ACID OR LIPID FOR USE IN THE TREATMENT OR PREVENTION OF CANCER” (LINNANE PHARMA AB, priority 2022, published 2026)
# Tests used:
# [1] = system: lungs, livers, kidneys and spleens of Apc^Min/+ mice; experiment: Macroscopy, histology and immunohistochemistry of organs outside the intestine of Apc^Min/+ mice, long-term drinking water; assay type: in vivo
# Protocol: (§1) For BAMLET prophylaxis protocol, ten-week-old female Apc^Min/+ mice (n=10 mice per group) were provided daily with BAMLET (20 mg/day in 5 ml PBS) in the drinking water for eight weeks and sacrificed at 18 weeks of age. A similar treatment was used in the survival study groups where mice were observed until 37 weeks of age.
# (§2) Swiss rolls of longitudinally opened intestinal segments were fixed overnight in 10% neutral buffered formalin. Samples were embedded in paraffin and 5 μm thick sections were further processed for histology and immunohistochemistry using antibodies for bovine alpha-Lactalbumin (ThermoFisher Scientific, Cat #A10-128A), β-catenin (CellSignaling, Cat #9562), Cyclin D1 (ThermoFisher Scientific, Cat #SC8396), Ki-67 (BD Biosciences, Cat #556003), VEGF (Abcam, Cat #ab46154), PD-1 (Abcam, Cat #ab214421) and TTF-1 (Abcam, Cat #ab227652) as previously described^28 with slight modifications. Citrate buffer (Dako Target Retrieval Solution, Agilent, Cat #S1699) was used for antigen retrieval for Cyclin D1, Ki-67, VEGF, bovine alpha-Lactalbumin and β-catenin staining. EDTA buffer (Abcam, Cat #ab64216) was used for antigen retrieval for TTF-1 staining. Immunohistochemistry was quantified by ImageJ. For Hematoxylin-Eosin (H&E) staining, Hematoxylin (ThermoFisher Scientific, Cat #7211) was used followed by Eosin-Y (ThermoFisher Scientific, Cat #7111) for counterstaining. Images were captured using the AX10 microscope or the Hamamatzu Nanozoomer scanner (Carl Zeiss) and the DAB-positive beta-catenin antibody fields (4-10) for each organ cross-sections were quantified by ImageJ.
# [2] = system: VEGF, Ki67, Cyclin D1 and β-catenin; experiment: Immunohistochemistry of intestinal sections for tumor markers; assay type: in vivo, mice; conditions: vs sham
# Text: as §2
# healthy C57BL/6 mice = experiment: BAMLET in healthy C57BL/6 mice: macroscopic inspection and intestinal gene expression analysis
# Protocol: Approximately 5 mg of tissue was homogenized using a Tissuelyser (Qiagen) and total RNA was extracted using the RNeasy kit (Qiagen), amplified using a GeneChip 3'IVT Express Kit, hybridized onto Mouse Genome 430 PM array strips, and scanned using the GeneAtlas system (Affymetrix). Data was normalized using Robust Multi Average implemented in the Transcriptome Analysis Console software (v.4.0.1.36, Applied Biosystems, ThermoFisher Scientific). Relative expression was analyzed by ANOVA using the empirical Bayes method, and genes with an absolute fold change >1.5 or 2.0 were considered differentially expressed.
# To identify effects on healthy tissues, healthy C57BL/6 mice received BAMLET by oral gavage or in the drinking water (FIG. 6). The effects were evaluated by macroscopic inspection of intestinal tissues and gene expression analysis.
# [3] = Giant unilamellar vesicle experiments, membrane response; conditions: 21 μM BAMLET, one hour
# Protocol: Giant unilamellar vesicles (GUVs) were formed by hydrogel-assisted swelling according to established protocols^29,30, with modifications previously described^31. Briefly, glass cover slips were sonicated in 1 M NaOH solution (30 minutes), rinsed in Milli-Q water (three times) and further sonicated (30 minutes). Coverslips were plasma etched (1 min) using a BD-20 laboratory corona treater (Electro Technic Products Inc.) to render the surface clean and hydrophilic. A thin film of 1% (w/v) solution of molten ultra-low gelling temperature type IX-A agarose (Sigma) was deposited on the coverslip to provide a reaction bed for GUV formation. The cover slips were placed in AttoFluor® cell chambers (ThermoFisher Scientific). Following, 25 μl of egg phosphatidylcholine (#840051P—Avanti Polar Lipids) in chloroform (25 mg/ml) doped with 4% v/v rhodamine C (1 mg/ml, Sigma) were deposited onto the gelled agarose surface, and the solvent evaporated with nitrogen gas. The lipid-hydrogel film was rehydrated with 200 mM sucrose in PBS, pH 7.2 for one hour and then transferred into 200 mM glucose in PBS, pH 7.2 for sedimentation. GUVs were allowed to settle overnight before seeded on the coverslips for visualization after treatment with 21 μM BAMLET for one hour.
# [4] = system: intestinal tumors of Apc^Min/+ mice; experiment: Intestinal cancer model in Apc^Min/+ mice, BAMLET oral gavage, tumor enumeration and histology; assay type: in vivo
# Protocol: (§3) Apc^Min/+ mice were obtained from Jackson Laboratories at about eight weeks of age. Genotyping was performed by PCR analysis of genomic DNA obtained from blood collected from the retro-orbital sinus. Multiple tumors were developed in the small intestine at eight to ten weeks. Mice were acclimated for about two weeks at the local animal facility at BMC, Lund University in order to reduce stress from transportation.
# For BAMLET therapeutic protocol, ten-week-old female mice (n=10 per group) were orally gavaged with 20 mg of BAMLET in 400 μl PBS, twice daily for ten days. Mice were not given water or food five hours prior to BAMLET administration. Food and water were provided 30 minutes after BAMLET oral administration. Sham treated mice were gavaged with 400 μl PBS. Mice were sacrificed two weeks and five weeks after the end of the treatment and intestinal tissue samples were collected for further analysis.
# (§4) Mice were sacrificed by isoflurane inhalation. Tumor enumeration and sample collection was presented as previously described^28. Tumor numbers and size were determined using a dissecting microscope (Olympus) and evaluated by three blinded investigators.
# (§5) The opened intestinal segments were spread flat between sheets of filter paper and fixed overnight in 10% neutral buffered formalin. Formalin-fixed sections were transferred to 70% ethanol and stained with 0.2% methylene blue (Sigma, #M9140). Stained sections were rinsed in deionized water and imaged by a dissecting microscope.
# as §2
# [5] = system: intestinal tumors of Apc^Min/+ mice; experiment: Intestinal cancer model in Apc^Min/+ mice, BAMLET in the drinking water (eight weeks and long term); assay type: in vivo; conditions: vs sham
# Protocol: as §3, §1, §4, §5, §2
# DLD1 cells = experiment: Cell death assays (Prestoblue and ATPlite); assay type: cell-based, human; conditions: 7, 21 and 35 μM; Prestoblue and ATPlite
# Protocol: Two assays were used as an indirect measure of cell death. Luminescence-based ATPlite™ kit (Perkin Elmer) as well as the Prestoblue assay (ThermoFisher Scientific). Cells (5×10^4 cells/well) were seeded in serum-free RPMI-1640 on 96-well plates and treated with BAMLET and alpha1-oleate at different concentration (7, 21, and 35 μM) and incubated for one hour. Afterward, FCS was added at concentration of 5% and the cells were continuously incubated for two hours at 37° C., at the end of which the two kits were used according to manufactures' instructions. Luminescence and fluorescence were measured using a microplate reader (Infinite F200, Tecan). The experiments were performed in triplicate and repeated twice.
# [6] = long-term BAMLET in drinking water
substance,measurement,setting,value
BAMLET,number of lung areas with proliferating cells,"[1]; TTF-1 / β-catenin stained lung sections, vs sham",markedly reduced
same,"BAMLET staining in lungs, livers or kidneys","[1]; immunohistochemistry, in contrast to the intestine",not detected
same,"β-catenin staining in lungs, livers and kidneys","[1]; long-term BAMLET in drinking water, vs sham",general reduction
same,"macroscopic changes in intestine, peritoneal cavity and major organs","[1]; long-term follow up, vs sham",much less apparent
same,level of TTF-1 staining in areas with proliferating cells,"[1]; lung sections, vs sham",markedly reduced
same,"expression of tumor markers VEGF, Ki67, Cyclin D1 and β-catenin","[2]; intestinal sections, five weeks post gavage and eight weeks drinking water",less strongly expressed
same,β-catenin staining of intestinal sections,[2]; [6],markedly reduced
same,inflammatory or necrotic changes in the intestines or peripheral organs,"healthy C57BL/6 mice; gavage or drinking water, vs untreated controls",no evidence of inflammatory or necrotic changes
same,"genes involved in lipid metabolism, glucose metabolism, insulin tolerance and immune regulation",healthy C57BL/6 mice; intestinal tissue,significantly affected
same,toxic response (gene expression),healthy C57BL/6 mice; intestinal tissue,no evidence of a toxic response
same,number of regulated genes,"healthy C57BL/6 mice; intestinal tissue, cut-off fold change ≥1.5, P<0.05",about 150 genes
same,macroscopic appearance of tissues outside the intestinal tract,"healthy C57BL/6 mice; mouse, in vivo",No changes in macroscopic appearance
same,organ weights,"healthy C57BL/6 mice; mouse, in vivo",no change in organ weights
same,membrane response,[3],"triggered rapid blebbing, tubulation and eventual vesicle division"
same,total polyp number,"[4]; 20 mg gavage twice daily for ten days, two and five weeks post oral gavage, vs sham",lower
same,"number of small tumors, fully formed polyps and confluent tumors along the intestinal wall","[4]; Apc^Min/+ mice, H&E sections, BAMLET vs sham (PBS)",reduced
same,tumor areas,"[4]; BAMLET treated Apc^Min/+ mice vs sham group, FIG. 1f",smaller
same,villus structure,"[4]; after short-term BAMLET treatment, H&E sections",normal villus structure was detected in the majority of sections
same,polyp number and polyp size,"[5]; 20 mg/day in drinking water, after eight weeks",markedly reduced
same,loss of body weight,[5]; [6],prevented
same,survival (Kaplan-Meier analysis),[5]; [6],increase in survival
same,total polyp number and polyp size,[5]; [6],reduced
same,cell viability,DLD1 cells,rapid dose-dependent reduction
